Calls of active or inactive are those of the source.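 The calls were made as follows: active = fitted curve reaches 40% activation at a concentration no higher than the top valid tested dose; inconclusive = flat fit between 30% and 70% activation, or poor fit; inactive = uptake decrease, flat fit within 30% of zero, the rest.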
target: Scavenger receptor class B member 1 (Mus musculus) (UniProt Q61009); test: enhancers of DiI-HDL lipid transfer via SR-BI – cell-based, ldlA[mSR-BI] CHO, DiI fluorescence, cherry-pick, dose response (AID 602191); settings: ldlA[mSR-BI] CHO cells, 3 h, at 35 µM (top of the series);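 also: cell fluorescence from internalized DiI-labeled HDL after washing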;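 as to AC40: potency of activators raising HDL uptake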;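 as to activation (HDL uptake increase): 0% = median of DMSO wells and 100% = twice the DMSO signal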
Sequence (Q61009 whole entry, looked up): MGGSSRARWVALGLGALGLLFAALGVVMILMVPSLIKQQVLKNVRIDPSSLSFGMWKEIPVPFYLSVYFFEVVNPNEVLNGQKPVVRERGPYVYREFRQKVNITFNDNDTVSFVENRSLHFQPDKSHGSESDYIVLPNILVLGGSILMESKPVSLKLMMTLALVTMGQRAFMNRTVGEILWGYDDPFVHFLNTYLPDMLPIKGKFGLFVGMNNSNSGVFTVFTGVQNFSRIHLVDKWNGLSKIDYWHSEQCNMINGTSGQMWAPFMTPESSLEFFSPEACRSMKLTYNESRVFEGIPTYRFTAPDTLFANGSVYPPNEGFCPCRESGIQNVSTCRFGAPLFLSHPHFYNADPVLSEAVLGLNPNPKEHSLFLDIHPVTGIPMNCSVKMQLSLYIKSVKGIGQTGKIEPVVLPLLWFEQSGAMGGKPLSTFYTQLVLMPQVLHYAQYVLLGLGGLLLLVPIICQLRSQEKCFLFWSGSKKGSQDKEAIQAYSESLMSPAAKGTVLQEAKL

SMILES	activation (HDL uptake increase)
CCOC(=O)N1CCC(NC(=S)Nc2ccc3nc(N4CCN(C)CC4)cc(C)c3c2)CC1	-25.6% (inactive)
COc1ccc(CCNC(=S)N2CCN(S(=O)(=O)c3ccc(Cl)cc3)CC2)cc1	5.66% (inactive)
COc1ccc(C(=O)Nc2nnc(SCC(=O)Nc3ccc(NC(C)=O)cc3)s2)c(OC)c1	-6.9% (inactive)
COc1ccc(NC(=O)COC(=O)c2cc(SC)ccc2Cl)c(OC)c1	-14.1% (inactive)
COc1ccccc1N(C(=O)c1snc(C(N)=O)c1N)C(C(=O)NCCC(C)C)c1ccco1 (configuration not stated)	7.43% (inactive)
CC(=O)NC1(C2CCCCC2=O)CCCCC1 (configuration not stated)	-3.84% (inactive)
COc1ccc(NC(=O)CN(C)C(=O)C2(c3ccccc3)CCCC2)cc1	-15.3% (inactive)
CN(C)c1nc(C#N)nc(N2CCOCC2)n1	4.22% (inactive)
CCOC(=O)c1csc(NC(=O)CN2CCN(C)CC2)n1	10.4% (inactive)
O=C(N/N=C\c1cccnc1)c1ccc(Br)s1	-10.3% (inactive)
Cc1ccc(S(=O)(=O)N(CCC(=O)NCC(c2ccccc2)N(C)C)c2ccccc2)cc1 (configuration not stated)	-5.72% (inactive)
O=C(CC1C(=O)NCCN1Cc1ccc(Cl)c(F)c1)NC1CCCCC1 (configuration not stated)	-11.9% (inactive)
O=C(COc1ccc(C(=O)c2ccccc2)cc1)NC1CCCCC1	-7.46% (inactive)
CCc1ccccc1NC(=O)CN1CCC(NC(=O)COC)CC1	-1.48% (inactive)
O=C(NC1CCCCCC1)C1c2ccccc2C(=O)N1CCCN1CCOCC1 (configuration not stated)	-1.53% (inactive)
O=C1C(=O)N(CNc2cccnc2)c2ccccc21	-7.96% (inactive)
CC(C)C[C@@H](CN1CCCC1CN1C(=S)NC[C@@H]1Cc1ccc(O)cc1)N1C[C@H](Cc2ccc(O)cc2)N(CC2CCCCCC2)C1=S (some centres not stated)	1.49% (inactive)
COC1CCCN(Cc2c(C(=O)N3CCN(C4CCCCC4)CC3)nc3ccccn23)C1 (configuration not stated)	-7.41% (inactive)
O=C(Cn1c(=O)cnc2ccccc21)NNC(=O)c1ccc(Cl)cc1	-5.85% (inactive)
Cc1ccc(C(c2nnnn2C2CCCCC2)N2CCN3CCCC3C2)cc1 (configuration not stated)	-9.01% (inactive)
O=C(CC(c1ccccc1)c1ccco1)Nc1nccs1 (configuration not stated)	4.67% (inactive)
O=S(=O)(NCCc1cn2ccccc2n1)c1ccc(-c2ccccc2)cc1	-1.66% (inactive)
C=CC[C@@H](CC(=O)N[C@@H](CO)Cc1ccccc1)C(=O)N[C@H](COC(=O)[C@@H](CC=C)CC(=O)OC(C)(C)C)Cc1c[nH]c2ccccc12	65.3% (inactive)
Cc1cccc(NC(=O)CCC(=O)OCc2ccc(Br)cc2)c1	-7.9% (inactive)
COc1ccc(C(CNS(=O)(=O)c2ccc(NC(C)=O)c(OC)c2)N2CCCCC2)cc1 (configuration not stated)	5.72% (inactive)
C/C(=N\N1C(=O)c2ccccc2NC1c1ccco1)c1ccccc1O (configuration not stated)	-54.6% (inactive)

SMILES	activation (HDL uptake increase)
CCC[C@@H](CNC)NC[C@H](Cc1ccccc1)NCCCCc1ccccc1	-3.49% (inactive)
COc1ccccc1NC(=O)CCN1CCCCCC1	-12.4% (inactive)
CN(C(=O)COC(=O)c1cccc(S(=O)(=O)N2CCOCC2)c1)C1CCS(=O)(=O)C1 (configuration not stated)	5.01% (inactive)
CC(CN(C)Cc1ccccc1)OC(=O)c1cccc(F)c1 (configuration not stated)	-8.97% (inactive)
O=C(CN1CCN(S(=O)(=O)c2ccc(F)cc2)CC1)Nc1ccc(F)cc1F	5.31% (inactive)
COC(=O)CNC(=O)COC(=O)c1cc(Cl)cc(Cl)c1N	-8.63% (inactive)
Cc1cc(C)nc(SCC(=O)OC(C)C(=O)Nc2ccccc2)n1 (configuration not stated)	-8.43% (inactive)
CCc1ccc2[nH]c(=O)c(CN(CCN(C)C)C(=O)Nc3ccccc3OC)cc2c1	-2.31% (inactive)
O=C1NC[C@H](Cc2ccccc2)N(C[C@H]2CCCN2C[C@H](Cc2ccccc2)N2C[C@H](Cc3ccccc3)N(CC3CCCCC3)C(=O)C2=O)C1=O	11.2% (inactive)
O=C(Nc1ccc(S(=O)(=O)Nc2ccccc2F)cc1)N1CCCCC1	-17.5% (inactive)
Cc1c(C(=O)NCCN2CCOC2=O)oc2c(F)cccc12	-0.811% (inactive)
CCc1cccc(N(C(=O)c2csnn2)C(C(=O)NC2CCCC2)c2cccnc2)c1 (configuration not stated)	6.32% (inactive)
CN(C(=O)COC(=O)CN1C(=O)c2cccc([N+](=O)[O-])c2C1=O)c1ccccc1	-5.58% (inactive)
O=C(c1ccc(Cl)cc1)C1CCCN(Cc2ccc3ncccc3c2)C1 (configuration not stated)	12.3% (inactive)
COc1ccc(-n2nc(C(=O)N3CCN(Cc4ccc5c(c4)OCO5)CC3)c3ccccc3c2=O)cc1	-5.05% (inactive)
Cc1ccc(C(C(=O)NC2CCCC2)N(Cc2ccc(F)cc2)C(=O)c2csnn2)o1 (configuration not stated)	6.32% (inactive)
CC1CCCC(NC(=O)COC(=O)c2ccc3ccccc3n2)C1C (configuration not stated)	-7.88% (inactive)
CC(C)NC(=O)c1ccc(CS(=O)(=O)c2ccc(Br)cc2)o1	-7.98% (inactive)
O=C(O)CCc1nnc(SCC(=O)Nc2ccc(Br)cc2)[nH]c1=O	-2.46% (inactive)
CCN1CCN(C(CNS(=O)(=O)c2ccc(Br)cc2)c2cccnc2)CC1 (configuration not stated)	-1.44% (inactive)
CCOC(CNC(=O)C1CCN(S(=O)(=O)c2ccc3nc4c(c(C(=O)O)c3c2)CCCCC4)CC1)OCC	5.08% (inactive)
CN(c1ccc(OCC(=O)OCC(=O)Nc2ccc([N+](=O)[O-])cc2)cc1)S(=O)(=O)c1cccs1	-13.3% (inactive)
O=C(COC(=O)c1cccs1)Nc1cccc(Cl)c1	-3.43% (inactive)
Cc1ncc(CN2CCC(n3nccc3NC(=O)c3ccccc3)CC2)s1	8.83% (inactive)
CCOC(=O)C1CCCN(S(=O)(=O)c2ccc3ccccc3c2)C1 (configuration not stated)	-7.01% (inactive)
COc1ccccc1NC(=O)CCC(=O)OCc1cccc([N+](=O)[O-])c1	-10.7% (inactive)

SMILES	activation (HDL uptake increase)
CCN1C[C@@H]2[C@@H]3C(=O)N(Cc4ccccc4)C(=O)[C@@H]3[C@](C)(C1=O)N2C(=O)c1ccc(Br)cc1	1.77% (inactive)
CCN1CCN(C(=O)/C(=C/c2ccco2)NC(=O)c2ccccc2)CC1	-3.29% (inactive)
Cc1cc(C)c2[nH]c(=O)c(CN(CC3CCCO3)C(=O)c3cnccn3)cc2c1 (configuration not stated)	-7.36% (inactive)
O=C(O)COCC(=O)N1CCc2c([nH]c3ccccc23)C1C(F)(F)F (configuration not stated)	-5.94% (inactive)
COCCNC(=O)c1cnn2c1NC(c1ccco1)CC2C(F)(F)F (configuration not stated)	-4% (inactive)
CC(C)CN(C(=O)CCNC(=O)c1ccccc1Cl)C1CCS(=O)(=O)C1 (configuration not stated)	0.946% (inactive)
Cc1c(/C(O)=C2/C(=O)C(=O)N(CCN3CCOCC3)C2c2cccnc2)cnn1-c1ccccc1 (configuration not stated)	-0.755% (inactive)
Cc1[nH]c2ccccc2c1C(=O)CSC(=S)N(C)C1CCCCC1	-5.9% (inactive)
CCOc1ccc(CN2CCNC(=O)C2CC(=O)NCCCOc2cccnc2)cc1 (configuration not stated)	-10.4% (inactive)
CC(C)C[C@H]1CNC(=S)N1CC1CCCN1C[C@H](Cc1ccccc1)N1C[C@H](Cc2ccc(O)cc2)N(CC2CCCCC2)C1=S (some centres not stated)	-0.934% (inactive)
COc1ccccc1-c1nc(SCC(=O)Nc2ccccc2F)n[nH]1	-24.3% (inactive)
O=C(C[C@H]1C[C@H](C(=O)N2CCOCC2)[C@@]2(CCC3CCCC3)c3[nH]c4ccc(Cl)cc4c3CCN2C1=O)NCc1ccco1	-3.23% (inactive)
COc1ccc(N(CC(=O)NCc2ccccc2)S(=O)(=O)c2c(C)nn(C)c2C)cc1	-6.65% (inactive)
COc1cc(-n2c(C)nc3cc(C(=O)NCC4CCCO4)ccc32)cc(OC)c1OC (configuration not stated)	-12.1% (inactive)
CCN1CCN(C(=O)CCc2nc3ccccc3c(=O)[nH]2)CC1	9.34% (inactive)
Cc1csc(NC(=O)Cc2ccccc2[N+](=O)[O-])n1	1.17% (inactive)
CCN(CC)C(=O)c1ncn(Cc2ccccc2)c1C(=O)N(CC)CC	-3.26% (inactive)
COc1ccc(NC(=O)C(NC(=O)Cc2cccs2)c2ccc(C)cc2)cc1 (configuration not stated)	2.03% (inactive)
Cc1c(CC(=O)O)c(=O)oc2cc(OCc3ccc(F)cc3Cl)ccc12	10.2% (inactive)
CCN1CCN(C(=O)C2CCC(=O)N(Cc3cccc(C(F)(F)F)c3)C2)CC1 (configuration not stated)	-0.502% (inactive)
COC(=O)C1=C(c2ccc(F)cc2OCc2ccccc2)C[C@@H]2CC[C@H]1N2C(=O)N1CCC(O)CC1	-7.61% (inactive)
CN(C)CCn1c2c(c(SCC(=O)NCc3ccccc3)nc1=O)CCCC2	5.5% (inactive)
COc1ccc(-n2nc3c(c2NC(=O)c2ccc(S(=O)(=O)N4CCOCC4)cc2)CS(=O)C3)cc1 (configuration not stated)	-10.8% (inactive)
COc1ccc(NC(=O)N(C)C[C@H]2Oc3c(NC(=O)c4ccncc4)cccc3C(=O)N([C@H](C)CO)C[C@@H]2C)cc1	-11.2% (inactive)
CC(Sc1ccc(S(=O)(=O)N(C)C)cn1)C(=O)NC1CCCC1 (configuration not stated)	-1.21% (inactive)
O=C(c1ccc(NS(=O)(=O)c2cccc([N+](=O)[O-])c2)cc1)N1CCN(C(=O)c2ccco2)CC1	-14.9% (inactive)

same assay, conditions: ldlA[mSR-BI] CHO cells, DiI-HDL uptake fluorescence, 3 h

SMILES	AC40
CCOc1ccc(CN2CCNC(=O)C2CC(=O)NCC2CCOCC2)cc1 (configuration not stated)	> 35 µM (inactive)
CCOC(=O)C(NC(=O)CC(C)C)(Nc1sc2c(c1C(N)=O)CCCC2)C(F)(F)F (configuration not stated)	> 35 µM (inactive)
O=C(CC1NC(=O)NC1=O)Nc1ccc(Cl)cc1 (configuration not stated)	> 35 µM (inactive)
CCN1CCN(c2ccc(S(=O)(=O)N3CCOCC3)cc2NC(=O)C2CCC(C(C)(C)C)CC2)CC1 (configuration not stated)	> 35 µM (inactive)

Source: PubChem BioAssay AID602191 (Broad Institute, 2012)
